The subject of assay [1] is Mamu-E restricted CD8^+ T cells. Type of assay: cell-based, rhesus macaques (Macaca mulatta).
Another assay addresses HLA-E*01:03 (Homo sapiens, UniProt P13747). In words: Single-chain peptide-β2m-HC construct, HLA-E surface expression in transfected 293T cells. The conditions noted are these: peptide encoded in single-chain peptide-β2M-HC construct, 24 h after transfection, flow cytometry, scaled to index position 2 residue, n = 4. It is filed as cell-based.

Results on 3 sequences are retold here after PMC6081459, “Pathogen-derived HLA-E bound epitopes reveal broad primary anchor pocket tolerability and conformationally malleable peptide binding” (Nature Communications, 2018).

Regarding RLPAKAPLL [Mtb44], the “Magnitude of CD8+ T cell responses to Mtb44 and position 2 variants” value in assay [1] was “responses of similar magnitude”. On the same count and under the same terms, next, RQPAKAPLL [Mtb44*P2-Gln]: “responses of similar magnitude”. For the sequence RFPAKAPLL [Mtb44*P2-Phe], the “Relative HLA-E surface expression (MFI, 3D12 antibody)” value on HLA-E*01:03 is reported as “highest relative levels of HLA-E surface expression”. Besides, the “Magnitude of CD8+ T cell responses to Mtb44 and position 2 variants” value in assay [1] was “responses of similar magnitude”.
